Laboratory results published in PMC4634248 (Influenza and Other Respiratory Viruses, 2013).
Entries after “also recorded” stand apart in the source; their conditions may differ.

Test system: NA activity of A(H1N1)pdm09 viruses with the H275Y substitution
Assay type: biochemical, influenza A(H1N1)pdm09 virus

| SMILES | fold increased IC50 values (decreased susceptibility) of H275Y mutant viruses compared with 275H | resistance / sensitivity of H275Y mutant viruses to the NA inhibitor | IC50 values of H275Y mutants relative to those of viruses with 275H |
| --- | --- | --- | --- |
| CCC(CC)O[C@@H]1C=C(C(=O)O)C[C@H](N)[C@H]1NC(C)=O [oseltamivir, oseltamivir carboxylate] | about 400 fold | resistance; also recorded: resistant | – |
| CC(=O)N[C@H]1[C@H]([C@H](O)[C@H](O)CO)OC(C(=O)O)=C[C@@H]1N=C(N)N [zanamivir] | – | sensitive | comparable |
| CCC(CC)[C@H](NC(C)=O)[C@@H]1[C@H](O)[C@@H](C(=O)O)C[C@H]1N=C(N)N [peramivir] | ~140 fold | resistance; also recorded: resistant | – |
| [H]/N=C(\N)N[C@H]1C=C(C(=O)O)O[C@@H]([C@H](OC)[C@H](O)CO)[C@@H]1NC(C)=O [laninamivir] | – | sensitive | comparable |
